# Read-outs that look alike come from different tables or passages of the source.
# Key:
# LYP [1] = target: T1, LYP (Homo sapiens, UniProt Q9Y2R2); test: LYP inhibition, follow-up of the 1536-well HTS, pCAP or OMFP substrate; format: biochemical
# T1 sequence (Q9Y2R2 24-289 limits assumed): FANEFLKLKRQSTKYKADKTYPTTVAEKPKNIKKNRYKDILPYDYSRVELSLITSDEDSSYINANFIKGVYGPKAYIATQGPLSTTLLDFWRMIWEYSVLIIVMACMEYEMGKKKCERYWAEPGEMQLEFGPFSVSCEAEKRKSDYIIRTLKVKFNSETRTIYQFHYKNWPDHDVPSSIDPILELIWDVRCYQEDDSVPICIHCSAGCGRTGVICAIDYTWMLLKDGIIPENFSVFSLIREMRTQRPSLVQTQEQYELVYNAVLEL
# LYP [2] = target: T1, LYP; details: Spectrum collection screen, cited from earlier work
# LYP [3] = target: T1, LYP; format: biochemical; details: for kcat: pH 6.5
"IC50 (LYP [1]; read-out: IC50, OMFP substrate, assayed using the OMFP substrate)","IC50 (LYP [1]; read-out: IC50, pCAP substrate, assayed using the pCAP substrate)",Compound,"inhibition of LYP activity, DiFMUP-based screen (LYP [2]; DiFMUP as substrate)","inhibition of LYP activity, peptide-based screen (LYP [2]; peptide 2 as substrate)",Km (LYP [3]),kcat/Km (LYP [3]),kcat (LYP [3])
1500 nM,530 nM,O=C(O)COc1ccc(/C=N/NC(=O)c2ccc(-c3csc(Nc4ccc(Cl)cc4)n3)cc2)cc1 [CID9595032],,,,,
,,Cc1ccc(C(=O)Nc2ccc(S(=O)(=O)O)c3cc(S(=O)(=O)O)cc(S(=O)(=O)O)c23)cc1NC(=O)c1cccc(NC(=O)Nc2cccc(C(=O)Nc3cc(C(=O)Nc4ccc(S(=O)(=O)O)c5cc(S(=O)(=O)O)cc(S(=O)(=O)O)c45)ccc3C)c2)c1 [suramin],~40%,nearly all,,,
,,Ac-ARLIEDNE-pY-TAREG-NH2 [Peptide 2a],,,130 ± 20 µM,"52,000,000 M^−1s^−1",6700 ± 400 s⁻¹
,,Ac-ARLIEDNE-pCAP-TAREG-NH2 [Peptide 2],,,200 ± 60 µM,"27,000,000 M^−1s^−1",5400 ± 1000 s⁻¹
